In brackets after ≈: the same amount, converted by molar mass. No end group written: not given here.

In general, solubility refers to how much of the substance goes into solution per volume. A lower solubility goes with little dissolved substance.

For series [1], the system named is second order arterioles of the hamster cheek pouch microcirculation. Nature of the series: Hamster cheek pouch microcirculation, arteriolar diameter during suffusion. It is filed as in vivo. The method, then:
According to this example, the vasorelaxant effects of VIP in a SSM were determined according to the following method. Specifically, adult male golden Syrian hamsters were purchased from Sasco (Omaha, Nebr.). Adult male hamsters with spontaneous hypertension and their normotensive controls were purchased from the Canadian Hybrid Farms (Halls Harbour, NS, Canada). Hypertensive animals have been identified after cross-breeding of hamsters with hereditary cardiomyopathy and normal golden Syrian hamsters. These albino animals have previously been used in our laboratory (Rubinstein et al., Biochem. Biophys. Res. Commun. 183:1117-1123 (1992); Artwohl et al., FASEB J. 10:A629 (1996)). Animals were anesthetized with pentobarbital sodium (6 mg/100 g body weight, i.p.). A tracheotomy was performed to facilitate spontaneous breathing. A femoral vein was cannulated to inject supplemental anesthesia during the experiment (2-4 mg/100 g body weight/h). Body temperature was maintained constant (37-38° C.) and monitored via heating pad and a feed back controller throughout the experiment.
The bioactivity of the VIP in SSM by diffusing it in situ was determined by visualization of the microcirculation of the hamster cheek pouch. The microcirculation of the cheek pouch was visualized locally by a method previously developed in our laboratory (Suzuki et al., Life Sci. 57:1451-1457 (1995); Suzuki et al., Am. J. Physiol. 271:R393-R397 (1996); and Suzuki et al., Am. J. Physiol. 271:H282-H287 (1996)). Briefly, the left cheek pouch was spread over a small plastic baseplate, and an incision was made in the outer skin to expose the cheek pouch membrane. The connective avascular tissue layer was removed, and a plastic chamber was placed over the baseplate and secured in place by suturing the skin around the upper chamber. This forms a triple-layered complex: the baseplate, the exposed cheek pouch membrane, and the upper chamber. After these initial procedures, the hamster is transferred to a heated microscope stage. The chamber was connected to a reservoir containing warmed bicarbonate buffer (37-38° C.) that allowed continuous suffusion of the cheek pouch. The buffer was bubbled continuously with 95% N2-5% CO2 (pH 7.4). […]
The cheek pouch microcirculation was epi-illuminated with a 100-W mercury light source and viewed through a microscope (Nikon, Tokyo, Japan) at a magnification of ×40. […] The inner-wall diameter of second order arterioles ([…]), which modulated vascular resistance in the cheek pouch, (Raud, Acta Physiol. Scand. (Suppl.) 578:1-58 (1989); Suzuki et al., Life Sci. 57:1451-1457 (1995); Suzuki et al., Am. J. Physiol. 271:R393-R397 (1996)) was measured from the video display of the microscope image using a videomicrometer (VIA 100; Boeckeler Instruments, Tucson, Ariz.). […]

Series [2] in a line: Circular dichroism (CD) spectral analysis of peptide conformation, % helicity. Particulars: room temperature. The format is physicochemical. The method, then:
According to this example, circular dichroism (CD) experiments were performed to determine the conformation changes of VIP in phospholipid micelles, pH and temperature changes, and in aqueous solutions. CD spectra were recorded on a JASCO J-700 spectropolarimeter using a fused quartz cell of 1 cm pathlength. Spectra in 0.15 N saline (pH 6.8) and 5 mM Hepes buffer (pH 7.4) were measured at a peptide concentration of 4 μM and at a lipid concentration of 1 mM. The effects of CaM, pH (6.8 or 7.4) and temperature (25° C. or 37° C.) on VIP conformation were also studied. The conformation of VIP fragments was likewise studied. All measurements were carried out at room temperature (˜25° C.) unless otherwise noted. A bandwidth of 1.0 nm and a step resolution of 0.5 nm were used to collect an average of 9 accumulations/sample at the […] (200-260 nm wavelength). The peptide spectra shown have the background buffer scans, and empty vesicle scans subtracted and were smoothed using the noise reduction function. The temperature during spectral analysis was maintained by using a circulating water bath attached to a jacket surrounding the fused quartz CD cell. The percent helical characterization of VIP was determined by a method of Haghjoo et al., Peptide Research 9 (6):327-331 (1996): % helicity=[−(θ208+4000)/29 000]*100 and are reported in table 1.
According to the example, CD was used to determine the conformation of VIP in saline, Hepes buffer and phospholipid micelles at room temperature and at 37° C. The CD spectra analysis was performed after 13 μg of human VIP incubated with 1 ml PEG-DSPE (1 μmol) micelles for 30 min at room temperature as determined by preliminary studies. A bandwidth of 1.0 nm and a step resolution of 0.5 nm were used to collect an average of 9 accumulations/sample at near UV range (200-260 nm). The temperature was maintained during spectral analysis by a circulating water bath attached to a jacket surrounding the fused quartz CD cell. The evaluation of VIP molecule conformation in SSM by using circular dichroism was successful because the distortion caused by spherical particles was eliminate due to the small size and univesicular structure of the SSM. […] The phospholipid micelles were ideal in our study of VIP conformation since it provided a hydrophobic core similar to the phospholipid bilayer of the SSL. Moreover, both the negative charge, and the hydrophilic layer provided by the PEG mimic the conditions of our SSL and make it possible to infer the VIP conformational results.
According to this example, the method of example 4 was repeated to determine the conformation of VIP in saline and phospholipid micelles plus calmodulin (CaM). CD spectra measurements were performed after 13 μg/ml of VIP was incubated with 1.0 μmol/ml of phospholipid micelles for 30 min followed by 10^−10 M CaM incubated with VIP in phospholipid micelles for 2 h at 4° C. (conjugation paper). A bandwidth of 1.0 nm and a step resolution of 0.5 nm were used to collect the average of 9 accumulations/sample at near UV range (200-260 nm).
According to this example the method of example 4 was repeated to determine the conformation of VIP fragments in saline and phospholipid micelles. CD spectra measurements were performed after incubation of VIP fragments with phospholipid micelles, at a molar concentration equivalent to VIP (i.e. 9 μg/ml for VIP10-28 fragment and 6 μg/ml for VIP1-12 fragment), for 30 min. A bandwidth of 1.0 nm and a step resolution of 0.5 nm were used to collect the average of 9 accumulations/sample at near UV range (200-260 nm). Specifically, CD spectra of human VIP fragment (1-12) and (10-28) in the presence of phospholipid micelles are shown in FIG. 5. […] These effects correlate well with the % helicity of VIP fragments determined in saline and in the presence of phospholipids (Table 1). […]
A general note: Circular dichroism is the unequal absorption of left and right circularly polarised light.

For series [3], the system named is second order arterioles of the hamster cheek pouch microcirculation. Particulars: Séjourné et al. 1997; cited from earlier work.
The test system of series [4] is human breast cancer cells (MCF-7). Nature of the series: In vitro cytotoxic activity, sulforhodamine B. Particulars: three days incubation.
Procedure: The cytotoxic activity of paclitaxel in SSMM, SSM and dimethyl sulfoxide (10% DMSO) was determined against human breast cancer cells (MCF-7; ATCC # HTB-22). The cell line was maintained in RPMI 1640 medium containing 10% fetal bovine serum and 1.0% antibiotics (penicillin and streptomycin), in a 5% carbon dioxide humidified atmosphere at 37° C. Optimum solutions of paclitaxel-SSM and paclitaxel-SSMM chosen from the solubilization studies were used as the test solutions. A 10% dimethyl sulfoxide (DMSO) solution of paclitaxel was also tested as a control. […]
Briefly, samples were prepared as described earlier and serial dilutions were made to obtain paclitaxel concentrations ranging from 0.0013 to 4 μg/ml using the respective solvent that is either HEPES buffer or 10% DMSO. […] Each sample was evaluated in triplicate. […] The optical density was then read at 515 nm. The optical density readings obtained for the solvent controls were used to define 100% growth after correcting for the value obtained for the zero day control. These values were then expressed as a % survival and ED50 values calculated using non-linear regression analysis (percent survival versus concentration).
All the data are expressed as means±standard deviation (SD). […] ED50 values were calculated for each formulation and compared statistically using one-way analysis of variance. […]
A further series is described as follows: physchem. Particulars: pH 7.4, aqueous with cosolvent or surfactant or cyclodextrin, thermodynamic from solid, paclitaxel solubilized by SSMM. Here is the method: Solubilization potential of both micelle compositions for a model drug was measured by HPLC after separation of the unincorporated drug.
Excess drug was removed by centrifugation and the supernatant was analyzed by HPLC. […] HPLC eluent was measured with adsorption at 254 nm.
According to this example, micelle compositions of the invention were further characterized. Particularly, the physiochemical properties of sterically stabilized micelles prepared with DSPE conjugated to molecular weight 2000, 3000, and 5000 PEG were analyzed. The critical micelle concentration (CMC) of phospholipids was determined at pH 7.4 and 25° C. using a water-insoluble fluorescent probe (1,6-diphenyl-1,3,5-hexatriene). Micellar size was determined by quasi-elastic light scattering.
The solvent was then removed by vacuum rotary evaporation under a stream of argon to form a dry film. This dry film was further dried under vacuum overnight to remove any traces of remaining solvent. The dried film was rehydrated with isotonic 0.01M HEPES buffer, pH 7.4. The solution was then flushed with argon, sealed and equilibrated for 12 h at room temperature. The unsolubilized excess paclitaxel was removed by centrifugation at 13,000 g for 5 min to obtain a clear dispersion.
The solubilization potentials of SSMM and SSM for paclitaxel were determined by RP-HPLC. The clear aqueous dispersion was diluted with methanol. 20 μl of each sample was injected at least three times into a μBondapak C-18 column, 3.9 mm×30 cm (Waters, Milford, Mass.) equipped with a C18 column guard. The column was eluted with acetonitrile/water (60:40) at 1.0 ml/min (Waters 600). Detection was by UV absorption measurement at 227 nm (Waters 490). Peak areas were calculated by interfacing the detector to an electronic integrator (Hewlett Packard). The drug concentration was calculated from standard curves.

With “VIP10-28: VIP fragment 10-28, a selective VIP receptor antagonist (YTRLRKQMAVKKYLNSILN; ends and bridges not checked; UniProt P01282 134-152, looked up, fragment)”, the “effect on secretin- and secretin in SSM-induced vasodilation” value in series [1] (VIP10-28 (50 nmol) suffused 30 min before and during secretin (5 nmol)) is listed as “abrogated”. Besides, in series [1] (suffusion of VIP10-28 alone (50 nmol)), the “effects on arteriolar diameter” value is on record as “no significant effects”. Besides, the “Conformation from CD spectrum in the presence of phospholipid micelles (SSM)” value in series [2] (phospholipid micelles (SSM)) is “predominantly α-helix structure”. In addition, in series [2] (phospholipids), the “% Helicity (in the presence of) Phospholipids” value was found to be 18%. Further, in series [2] (saline), the “% Helicity (in the presence of) Saline” value amounted to 3% and the “Conformation from CD spectrum in saline” value is “primarily random coil conformation”. In series [3], the “effect on VIP in SSL response” value is “attenuated” and the “effect on native VIP response” value is “completely abolished”.

Regarding `CC(=O)O[C@H]1C(=O)[C@@]2(C)[C@H]([C@H](OC(=O)c3ccccc3)[C@]3(O)C[C@H](OC(=O)[C@H](O)[C@@H](NC(=O)c4ccccc4)c4ccccc4)C(C)=C1C3(C)C)[C@]1(OC(C)=O)CO[C@@H]1C[C@@H]2O` [paclitaxel], the “cytotoxic activity against MCF-7 cells” value in series [4] is listed as “comparable cytotoxic activities”. This molecule also yielded a solubility at 12 h in the series “physchem” of 1320 ± 48 µg/mL (≈ 1550 µM).

These data come from US20110142884A1, “Materials and Methods for Making Improved Micelle Compositions” (The Board of Trustees of the University of Illinois, priority 2002, published 2011).
